Test results reported in patent publication US4346099A, “Carboxy-imidazole derivatives, compositions and use” (Ono Pharmaceutical Co., Ltd., priority 1981, dated 1982).
Where a name gives a salt, the structure may show the parent alone.

Molecular target: T1, thromboxane synthetase from rabbit platelet microsomes (Oryctolagus cuniculus, UniProt G1TAZ9)
T1 construct: thromboxane synthetase from rabbit platelet microsomes; from tissue; host or cells: rabbit platelet microsomes
T1 sequence (G1TAZ9 1-530): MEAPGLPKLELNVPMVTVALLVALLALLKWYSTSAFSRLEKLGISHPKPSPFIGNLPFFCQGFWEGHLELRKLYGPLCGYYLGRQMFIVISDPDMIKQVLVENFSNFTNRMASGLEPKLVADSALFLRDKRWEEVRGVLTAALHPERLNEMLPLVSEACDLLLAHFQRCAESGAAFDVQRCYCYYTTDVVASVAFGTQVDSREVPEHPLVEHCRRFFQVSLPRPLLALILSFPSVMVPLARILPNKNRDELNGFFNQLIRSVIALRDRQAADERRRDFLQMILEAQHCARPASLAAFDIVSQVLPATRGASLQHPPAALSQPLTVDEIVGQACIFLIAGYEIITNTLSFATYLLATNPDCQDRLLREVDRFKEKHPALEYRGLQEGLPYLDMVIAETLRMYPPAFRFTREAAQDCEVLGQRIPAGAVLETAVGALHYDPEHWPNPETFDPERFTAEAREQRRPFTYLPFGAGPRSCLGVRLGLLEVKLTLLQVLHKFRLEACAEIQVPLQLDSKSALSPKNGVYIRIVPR
Test: inhibition of thromboxane synthetase from rabbit platelet microsomes (standard laboratory tests)
Format: biochemical

IC50 [nM]	Structure (SMILES)
38	O=C(O)C(CCCCCCn1ccnc1)c1ccccc1 (centres unmarked) [1-(7-carboxy-7-phenylheptyl)imidazole hydrochloride]
46	O=C(O)C1(CCCCCCn2ccnc2)CCCCC1 [1-(7-carboxy-7,7-pentanoheptyl)imidazole hydrochloride]
